Measurements as given in patent publication US8742112B2, “Heterocyclic compound and its use for control of an arthropod pest” (Sumitomo Chemical Company, Limited, priority 2009, dated 2014).

Experiments:
Bemisia tabaci = experiment: Test Example 4: spray on tomato seedling carrying Bemisia tabaci eggs/larvae; type: in vivo; settings: 200 ppm, 10 ml/cup sprayed on tomato seedling, larvae checked after 7 days at 25° C., Formulation Example 5
Method: The present compounds (1), (4) to (7), (9) to (12) and (14) to (19) were formulated by the method in Formulation Example 5. This formulation was diluted with water so that the active ingredient concentration was 200 ppm, to prepare a diluted solution for test. On a tomato seedling planted in a plastic cup, Bemisia tabaci adult insects were released and allowed to lay eggs for about 24 hours. The tomato seedling was left in a greenhouse for 8 days. Thereafter, the diluted solution for test was sprayed in a proportion of 10 ml/cup. Further, this tomato seedling was placed in a greenhouse at 25° C. for 7 days. Thereafter, the number of larvae living on the tomato leaves was checked, and the control value was calculated according to the following formula. Control value (%)={1−(Cb×Tai)/(Cai×Tb)}×100 Letters in the formula represent the following meanings. Cb: insect number before treatment on non-treated area Cai: insect number in observation on non-treated area Tb: insect number before treatment on treated area Tai: insect number in observation on treated area

Aphis gossypii = experiment: Test Example 3: treatment of the foot of a cucumber seedling, then inoculation with Aphis gossypii; type: in vivo; settings: 200 ppm, 5 ml at foot of cucumber seedling, inoculated after 7 days at 25° C., checked after 6 days, Formulation Example 5
Method: The present compound (7) was formulated by the method in Formulation Example 5. This formulation was diluted with water so that the active ingredient concentration was 200 ppm, to prepare a diluted solution for test. The diluted solution for test (5 ml) was used to treat a foot of a cucumber seedling (first true leaf spreading stage) planted in a plastic cup. This cucumber was left in a greenhouse at 25° C. for 7 days. Then; the cucumber leaf surface was inoculated with 30 Aphis gossypii (whole stage). This cucumber was further left in the greenhouse for 6 days, then, the insect number of living Aphis gossypii parasitic on the leaves of this cucumber was checked, and the control value was calculated according to the following formula. Control value (%)={1−(Cb×Tai)/(Cai×Tb)}×100 Letters in the formula represent the following meanings. Cb: insect number before treatment on non-treated area Cai: insect number in observation on non-treated area Tb: insect number before treatment on treated area Tai: insect number in observation on treated area

Row | Compound | Control value (Bemisia tabaci) [%] | Control value (Aphis gossypii) [%]
1 | Fc1cnccc1-c1nc2cc(C(F)(F)F)ccc2s1 [compound 1] | ≥ 90 | –
2 | CCS(=O)(=O)c1cnccc1-c1nc2cc(C(F)(F)F)ccc2s1 [compound 7] | – | ≥ 90
